Experimental data: patent publication US20240300934A1, “COMPOUNDS FOR MODULATING MYCOBACTERIUM TUBERCULOSIS RESPONSE” (priority 2021, published 2024)

Experiments:
Mtb [1] = assay: C3HeB/FeJ murine Mtb infection model; type: in vivo, C3HeB/FeJ mice
Experimental: C3HeB/FeJ wild type mice (Jackson Laboratories) were infected intranasally with 10^3 CFUs of Mtb (35 μl), under light anesthesia with 2% isoflurane (MacGilvary et al, 2019; Sukumar et al, 2014; Tan et al, 2013). […] The next day the suspension was homogenized by bead beating with 5 mm steel beads in a TOMY microtube mixer (2×20 s), and stored at 4° C. until use. […] Administration began at two or six weeks post-infection as indicated. At time of sacrifice, the left lobe and accessory right lobe of the lung were homogenized in PBS+0.05% Tween 80 and serial dilutions plated on 7H10 agar plates with 100 μg/ml cycloheximide for bacterial load determination. The remaining three right lobes were fixed in 4% PFA in PBS. One lobe was used for histological analysis by standard hematoxylin and eosin (H&E) staining (Tufts Comparative Pathology Services). A Nikon Eclipse E400 with a SPOT insight color digital camera was used to image the histology samples.

Mtb in J774 cells = assay: Mtb growth in J774 macrophage-like cells (mKO fluorescence); type: cell-based, Mycobacterium tuberculosis
Outline: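 J774 cells infected with log-phase mKO-expressing Mtb (OD600=0.2 suspension), compounds dosed from 20 μM final in two-fold dilutions to 0.039 μM, or single 10 μM in 96-well format; 37° C., 5% CO2, 6 days. mKO fluorescence read, growth expressed as percent of DMSO control.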

human CYP 450 2D6 = human CYP 450 2D6 (Homo sapiens, UniProt P10635); assay: Human cytochrome P450 inhibition, 2D6; type: in vitro ADME; conditions: 10 μM
[2] = Mouse liver microsomal stability; type: in vitro ADME; conditions: mouse liver microsomes
Experimental: (§1) Assays examining mouse and human liver microsomal stability, kinetic aqueous solubility, mouse and human plasma protein binding and stability, and human cytochrome P450 inhibition characteristics of the compounds were run by BioDuro, Incorporated, using standard protocols as previously described (Wang et al, 2020). hERG inhibition assays were also performed by BioDuro, Incorporated.

[3] = system: Mtb in bone marrow-derived macrophages (BMDMs); assay: Mtb growth in primary murine bone marrow-derived macrophages (CFU); type: cell-based, Mycobacterium tuberculosis; conditions: 10 μM; added 2 hrs post-infection; eight-day time-course
Experimental: C57BL/6J wild type mice (Jackson Laboratories) were used for extraction of bone marrow-derived macrophages. Cells were harvested and expanded in DMEM containing 10% FBS, 15% L-cell conditioned media, 2 mM L-glutamine, 1 mM sodium pyruvate, and penicillin/streptomycin as needed in a 37° C. incubator in a 5% CO2 atmosphere. […] Macrophages were lysed with water containing 0.01% sodium dodecyl sulfate and a dilution series of the samples plated on 7H10 agar for CFU determination.

Mtb [4] = assay: Mtb growth assay in cholesterol media (OD600); type: cell-based, Mycobacterium tuberculosis
[5] = Human plasma protein binding; type: in vitro ADME
Experimental: as §1

[6] = 250 mg/kg oral gavage 5 times a week for 2 weeks, started 2 weeks post-infection
[7] = 250 mg/kg oral gavage for two or four weeks, started 6 weeks post-infection

Sequence of human CYP 450 2D6 (P10635 whole entry): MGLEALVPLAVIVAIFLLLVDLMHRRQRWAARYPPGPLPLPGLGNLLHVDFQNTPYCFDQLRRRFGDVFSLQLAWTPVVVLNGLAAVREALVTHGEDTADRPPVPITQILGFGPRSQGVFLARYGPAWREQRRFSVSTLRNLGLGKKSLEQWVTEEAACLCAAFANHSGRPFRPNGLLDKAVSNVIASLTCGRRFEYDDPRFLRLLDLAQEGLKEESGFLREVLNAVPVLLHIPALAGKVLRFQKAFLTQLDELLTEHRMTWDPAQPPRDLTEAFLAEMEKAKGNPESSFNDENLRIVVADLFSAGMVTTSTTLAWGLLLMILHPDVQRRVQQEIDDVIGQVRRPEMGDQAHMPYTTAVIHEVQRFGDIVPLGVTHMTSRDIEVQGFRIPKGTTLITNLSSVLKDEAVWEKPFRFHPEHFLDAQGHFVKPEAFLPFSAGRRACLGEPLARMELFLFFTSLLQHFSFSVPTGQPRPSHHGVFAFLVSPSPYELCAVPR

CCSc1ncc(CN2CCN(c3nc4ccccc4o3)CC2)cn1 [Compound C6, 2-(4-((2-(ethylthio)pyrimidin-5-yl)methyl)piperazin-1-yl)benzo[d]oxazole]
Mtb growth in lungs (CFU), short-term infection (Mtb [1]; [6]): significantly inhibited Mtb growth in the mice lungs | lung histology, short-term infection (Mtb [1]; [6]): less cellular infiltration | lung bacterial load, longer-term infection (Mtb [1]; [7]): significant decrease in bacterial load | lung histopathology, longer-term infection (Mtb [1]; [7]): improved histopathology | % Reduction of Intracellular Infection (J774.1 cells) at 10 μM cmpd (Mtb in J774 cells; 10 μM compound, J774.1 cells): 54.2 ± 2.6% | Mtb growth in J774 cells (in words) (Mtb in J774 cells; 10 μM, 6 days post-infection): Mtb growth inhibition | inhibition at 10 µM (Mtb in J774 cells; Mycobacterium tuberculosis, J774CELLS, J774, 144 h, read-out: % inhibition compared to Rif in J774 at 10 μM): 40.5 ± 0.6% | inhibition at 20 µM (Mtb in J774 cells; Mycobacterium tuberculosis, J774CELLS, J774, 144 h, read-out: % inhibition compared to Rif in J774 at 20 μM): 53.6 ± 2.7% | Inhibition of Mtb growth in J774 cells phenotype (Mtb in J774 cells; compared to C6): Y | % inhibition of CYP 2D6 (human CYP 450 2D6): 10.5% | MLM t1/2 [2]: 48.5 min | Mtb bacterial load / growth in primary murine BMDM (in words) [3]: significant decrease in bacterial load | effect of even chain fatty acids on growth inhibition in cholesterol media (Mtb [4]; 10 μM, 4 mM acetate or 200 μM stearate): rescue inhibition | Mtb growth in cholesterol media (in words) (Mtb [4]; 10 μM, OD600): inhibited Mtb growth in cholesterol media | effect of odd chain fatty acids on growth inhibition in cholesterol media (Mtb [4]; 10 μM, additional odd chain carbon source): do not rescue inhibition | effect of vitamin B12 on growth inhibition in cholesterol media (Mtb [4]; 10 μM, vitamin B12 added): does not rescue inhibition | Growth inhibition in cholesterol media phenotype (Mtb [4]; compared to C6): Y | protein binding to human plasma [5]: 99.2%
